Source: patent publication US4689326A, “Process for controlling hyperlipidemia” (Research Corporation, priority 1985, dated 1987)
Where two headings read alike, the source gives them in different places.

What was measured:
Type in all cases: in vivo, CF1 male mice
serum cholesterol [1] = test: Testing of Normal Mice: serum cholesterol (modified Liebermann-Burchard), Example 7; details: Mus musculus; for response vs control in vivo at 20 mg/kg: 20 mg/kg/day ip; for response vs control in vivo at 150 mg/kg: 150 mg/kg/day ip
Procedure: (§1) Suspensions of Compounds Nos. 1-9 were prepared wherein the compounds were suspended in an aqueous 1% carboxymethylcelluose solution, homogenized and administered to CF1 male mice, each weighing approximately 25 grams, intraperitoneally on a daily basis for 16 days. The dosage was, with the exception of one compound, 20 milligrams of the active compound per kilogram of mouse weight per day. On days 9 and 16 blood was obtained by tail vein bleeding. The blood serum was separated by centrifugation for three minutes. Serum cholesterol levels were determined by a modification of the Liebermann-Burchard reaction. Serum was also collected on day 16 and the triglycerides content was determined by a commercial kit, BioDynamics/bnc Single Vile Colorimetric Method 348201. Each compound was tested on a group of six mice.
(§2) In addition to the above-described treated mice, untreated control groups of six mice were similarly tested on days 9 and 14 or 16 to determine their serum cholesterol and triglycerides blood levels. Table 5 reports the percent control, based on the serum cholesterol and serum triglyceride levels of the treated mice compared to the untreated controls. Table 5 also includes the standard deviation indicating the level of confidence of these numbers.
(§3) Example 7 was repeated substituting clofibrate, a compound used in the prior art to lower serum cholesterol and serum triglyceride levels. The clofibrate was administered as a suspension in an aqueous 1% solution of carboxymethylcellulose. However, unlike the compounds of the present invention which were administered at a dosage of 20 mg/kg day, ip, this compound was administered at the elevated concentration of 150 mg/kg day, ip.

serum triglycerides [2] = test: Testing of Normal Mice: serum triglycerides (BioDynamics kit), Example 7; details: Mus musculus, 384 h, day 16, ± SD; for response vs control in vivo at 20 mg/kg: 20 mg/kg/day ip
Procedure: as §1, §2, §3

serum cholesterol [3] = test: Hypolipidemic Activity of Compounds 1 and 10-33, Example 13: serum cholesterol; details: Mus musculus, 20 mg/kg/day ip
Procedure: (§4) Compounds 1 and 10-33, identified below in Table 11, were suspended by homogenation in a 1% aqueous solution of carboxymethylcellulose (CMC) such that a 0.2 ml dosage supplied a concentration of 20 mg/kg of the active compounds. The suspending agent, the 1% aqueous solution of CMC, was utilized as a control, applied in the same quantity, 0.2 ml. CF1 male mice, maintained in groups of six, were fed Wayne Blox [trademark] laboratory animal show ad libitum with water. The mice, which each weighed approximately 25 g, were administered the drugs interperitoneally at approximately the same time. On days 9 and 16 approximately […] of blood was taken from each of the animals by tail bleeding. After centrifugation to obtain serum, 25 microliter samples were assayed for total cholesterol utilizing the method of Ness et al. Serum triglyicerides were assayed, using a commercially available BioDynamics/bmc triglyiceride kit, on blood collected on the 16th day. By comparison to standards the milligram percent of cholesterol and milligram per deciliter concentration of triglicerides were calculated. Treated values were expressed as a percent of the level of the control animals plus or minus the standard deviation. The "T" values were obtained using the Student's "t" test.

serum triglycerides [4] = test: Hypolipidemic Activity of Compounds 1 and 10-33, Example 13: serum triglycerides; details: Mus musculus, 384 h; 20 mg/kg/day ip, day 16, ± SD; read-out: Serum Triglyceride as a function of control, 16 Day
Procedure: as §4

[5] = 216 h, day 9, ± SD, read-out: Serum Cholesterol Control, % Day 9
[6] = 384 h, day 16, ± SD, read-out: Serum Cholesterol Control, % Day 16
[7] = 216 h, day 9, ± SD, read-out: Serum Cholesterol as a function of control, 9 Day
[8] = 384 h, day 16, ± SD, read-out: Serum Cholesterol as a function of control, 16 Day

Compound	response vs control in vivo at 20 mg/kg (serum cholesterol [3]; [7]) [%]	response vs control in vivo at 20 mg/kg (serum cholesterol [3]; [8]) [%]	response vs control in vivo at 20 mg/kg (serum triglycerides [4]) [%]	further results
CC(=O)CCN1Cc2ccccc2-c2ccccc2C1 [Compound 9, 2-(3-Oxobutyl)-3,4,5,6-Dibenzohomopiperidine]	–	–	–	response vs control in vivo at 20 mg/kg (serum cholesterol [1]; [5]): 69 ± 8%; response vs control in vivo at 20 mg/kg (serum cholesterol [1]; [6]): 56 ± 7%; response vs control in vivo at 20 mg/kg (serum triglycerides [2]): 45 ± 5%
O=c1c2ccccc2c2ccccc2c(=O)n1-c1ccccc1 [Compound 18, N-phenyldiphenimide]	97 ± 8	67 ± 6	62 ± 6	–
CCCn1c(=O)c2ccccc2c2ccccc2c1=O [Compound 12, N-propyldiphenimide]	69 ± 7	66 ± 6	57 ± 5	–
O=c1c2ccccc2c2ccccc2c(=O)n1Cc1ccccc1 [Compound 15, N-benzyldiphenimide]	91 ± 7	61 ± 6	77 ± 7	–
CC(=O)CCn1c(=O)c2ccccc2c2ccccc2c1=O [Compound 16, N-(3-Oxobutyl)-Diphenimide]	77 ± 5	77 ± 7	90 ± 4	–
CCCCn1c(=O)c2ccccc2c2ccccc2c1=O [Compound 13, N-butyldiphenimide]	78 ± 7	77 ± 10	52 ± 5	–
CCN1Cc2ccccc2-c2ccccc2C1 [Compound 5, 2-ethyl-3,4,5,6-dibenzohomopiperidine]	–	–	–	response vs control in vivo at 20 mg/kg (serum cholesterol [1]; [5]): 67 ± 5%; response vs control in vivo at 20 mg/kg (serum cholesterol [1]; [6]): 59 ± 4%; response vs control in vivo at 20 mg/kg (serum triglycerides [2]): 60 ± 4%
CCn1c(=O)c2ccccc2c2ccccc2c1=O [Compound 11, N-ethyldiphenimide]	64 ± 6	62 ± 5	66 ± 7	–
CCCN1Cc2ccccc2-c2ccccc2C1 [Compound 6, 2-propyl-3,4,5,6-dibenzohomopiperidine]	–	–	–	response vs control in vivo at 20 mg/kg (serum cholesterol [1]; [5]): 78 ± 6%; response vs control in vivo at 20 mg/kg (serum cholesterol [1]; [6]): 65 ± 5%; response vs control in vivo at 20 mg/kg (serum triglycerides [2]): 73 ± 6%
COc1ccccc1-n1c(=O)c2ccccc2c2ccccc2c1=O [Compound 19, N-(2-methoxy)-phenyldiphenimide]	80 ± 8	67 ± 5	68 ± 5	–
CC(=O)c1cccc(-n2c(=O)c3ccccc3c3ccccc3c2=O)c1 [Compound 32, N-(3-acetyl)-phenyldiphenimide]	77 ± 8	68 ± 6	58 ± 4	–
CC(=O)c1ccccc1-n1c(=O)c2ccccc2c2ccccc2c1=O [Compound 31, N-(2-acetyl)-phenyldiphenimide]	79 ± 7	76 ± 6	58 ± 6	–
Cc1ccccc1-n1c(=O)c2ccccc2c2ccccc2c1=O [Compound 22, N-(2-methyl)-phenyldiphenimide]	78 ± 7	61 ± 6	65 ± 6	–
COc1ccc(-n2c(=O)c3ccccc3c3ccccc3c2=O)cc1 [Compound 21, N-(4-methoxy)-phenyldiphenimide]	91 ± 7	84 ± 8	74 ± 6	–
CCc1cccc(-n2c(=O)c3ccccc3c3ccccc3c2=O)c1 [Compound 26, N-(3-ethyl)-phenyldiphenimide]	95 ± 7	77 ± 7	66 ± 6	–
O=C1NCc2ccccc2-c2ccccc21 [Compound 2, 3,4,5,6-dibenzohomopiperidin-2-one]	–	–	–	response vs control in vivo at 20 mg/kg (serum cholesterol [1]; [5]): 84 ± 6%; response vs control in vivo at 20 mg/kg (serum cholesterol [1]; [6]): 49 ± 4%; response vs control in vivo at 20 mg/kg (serum triglycerides [2]): 73 ± 5%

Compound	response vs control in vivo at 20 mg/kg (serum cholesterol [3]; [7]) [%]	response vs control in vivo at 20 mg/kg (serum cholesterol [3]; [8]) [%]	response vs control in vivo at 20 mg/kg (serum triglycerides [4]) [%]	further results
COc1cccc(-n2c(=O)c3ccccc3c3ccccc3c2=O)c1 [Compound 20, N-(3-methoxy)phenyldiphenimide]	84 ± 7	74 ± 7	72 ± 8	–
Cn1c(=O)c2ccccc2c2ccccc2c1=O [Compound 10, N-methyldiphenimide]	64 ± 7	63 ± 5	67 ± 6	–
CCOC(=O)C(C)(C)Oc1ccc(Cl)cc1 [Compound C2, clofibrate, reference compound]	–	–	–	response vs control in vivo at 150 mg/kg (serum cholesterol [1]; [5]): 88 ± 7%; response vs control in vivo at 150 mg/kg (serum cholesterol [1]; [6]): 87 ± 5%; response vs control in vivo at 150 mg/kg (serum triglycerides [2]; 150 mg/kg/day ip): 75 ± 5%
CN1Cc2ccccc2-c2ccccc2C1 [Compound 4, 2-methyl-3,4,5,6-dibenzohomo-piperidine]	–	–	–	response vs control in vivo at 20 mg/kg (serum cholesterol [1]; [5]): 75 ± 6%; response vs control in vivo at 20 mg/kg (serum cholesterol [1]; [6]): 61 ± 5%; response vs control in vivo at 20 mg/kg (serum triglycerides [2]): 66 ± 6%
CCCCCn1c(=O)c2ccccc2c2ccccc2c1=O [Compound 14, N-pentyldiphenimide]	90 ± 8	69 ± 4	60 ± 5	–
O=c1c2ccccc2c2ccccc2c(=O)n1-c1ccc(Cl)cc1 [Compound 30, N-(4-chloro)phenyldiphenimide]	74 ± 6	67 ± 5	64 ± 4	–
CCc1ccc(-n2c(=O)c3ccccc3c3ccccc3c2=O)cc1 [Compound 27, N-(4-ethyl)-phenyldiphenimide]	101 ± 8	71 ± 5	70 ± 7	–
CCCCCN1Cc2ccccc2-c2ccccc2C1 [Compound 8, 2-pentyl-3,4,5,6-dibenzohomopiperidine]	–	–	–	response vs control in vivo at 20 mg/kg (serum cholesterol [1]; [5]): 71 ± 6%; response vs control in vivo at 20 mg/kg (serum cholesterol [1]; [6]): 67 ± 5%; response vs control in vivo at 20 mg/kg (serum triglycerides [2]): 71 ± 4%
O=c1c2ccccc2c2ccccc2c(=O)n1-c1ccccc1Cl [Compound 28, N-(2-chloro)-phenyldiphenimide]	67 ± 6	64 ± 5	65 ± 6	–
O=c1c2ccccc2c2ccccc2c(=O)n1-c1cccc(Cl)c1 [Compound 29, N-(3-chloro)-phenyldiphenimide]	81 ± 8	78 ± 8	87 ± 7	–
O=C(O)CCn1c(=O)c2ccccc2c2ccccc2c1=O [Compound 17, N-(2-Carboxyethyl)-Diphenimide]	88 ± 11	84 ± 6	75 ± 10	–
Cc1cccc(-n2c(=O)c3ccccc3c3ccccc3c2=O)c1 [Compound 23, N-(3-methyl)-phenyldiphenimide]	78 ± 7	76 ± 7	63 ± 6	–
CC(=O)c1ccc(-n2c(=O)c3ccccc3c3ccccc3c2=O)cc1 [Compound 33, N-(4-acetyl)-diphenimide]	80 ± 5	73 ± 5	70 ± 5	–
CCCCN1Cc2ccccc2-c2ccccc2C1 [Compound 7, 2-butyl-3,4,5,6-dibenzohomopiperidine]	–	–	–	response vs control in vivo at 20 mg/kg (serum cholesterol [1]; [5]): 82 ± 7%; response vs control in vivo at 20 mg/kg (serum cholesterol [1]; [6]): 59 ± 6%; response vs control in vivo at 20 mg/kg (serum triglycerides [2]): 52 ± 7%
CCc1ccccc1-n1c(=O)c2ccccc2c2ccccc2c1=O [Compound 25, N-(2-ethyl)phenyldiphenimide]	82 ± 8	73 ± 6	84 ± 7	–
Cc1ccc(-n2c(=O)c3ccccc3c3ccccc3c2=O)cc1 [Compound 24, N-(4-methyl)-phenyldiphenimide]	57 ± 7	52 ± 6	60 ± 7	–
